From the NIST ThermoML archive (doi:10.1016/j.jct.2005.11.005)
Numbers after ± are expanded uncertainties.

Columns and labels:
[1] = DTA; for Normal melting temperature: Crystal
[2] = Molar enthalpy of transition or fusion; settings: Crystal; DSC

SMILES	Normal melting temperature [1] [°C]	Glass transition temperature ([1]; Glass) [°C]	Molar enthalpy of transition or fusion [2] [kcal/mol]
OC[C@H]1O[C@H](O[C@H]2O[C@H](CO)[C@@H](O)[C@H](O)[C@H]2O)[C@H](O)[C@@H](O)[C@@H]1O [α-trehalose]	209.4 ± 0.5	120.0 ± 2	12.8 ± 0.669
O.O.OC[C@H]1O[C@H](O[C@H]2O[C@H](CO)[C@@H](O)[C@H](O)[C@H]2O)[C@H](O)[C@@H](O)[C@@H]1O [D-(+)-trehalose dihydrate]	99.10 ± 0.5		26.2 ± 0.669
